What all share (assay): inhibition of tumour cell growth, NCI panel, 48 h
Test [1] relates to ACHN renal.
The subject of test [2] is A498 renal.
Test [3] has as its system UACC-257 melanoma.
In test [4] the test system is T-47D breast.
Test [5] has as its system IGROV1 ovarian.
Test [6] relates to SK-MEL-2 melanoma.
For test [7], the system named is SNB-19 CNS.
Test [8] has as its system TK-10 renal.
Test [9] has as its system HS 578T breast.
For test [10], the system named is OVCAR-3 ovarian.

Several values for one entry are separate records, joined by “and”; a condition that tells them apart may be missing. Equal entries are not always repeated.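 Grown in 96-well plates, cells were treated for 48 hours with each compound at five concentrations. Insufficient inhibition: endpoint recorded as highest concentration tested. GI50 is the concentration that inhibits growth by half. TGI denotes the concentration required for complete inhibition of growth.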

As for `NC(=O)CC1OC(=O)Cc2cc3c(c(O)c21)C(=O)c1c(O)cccc1C3=O` (centres undefined), the TGI in [1], in [2], in test [3], in test [4], in test [5] and in [6] was over 100 µM throughout. For the same compound, the TGI in test [7] and in [8] was over 100 µM each time.

Turning to `O=C1Nc2c(Cl)cc(Cl)cc2/C1=N/N=C/c1ccco1`, the TGI in test [1] was over 100 µM; in [2] it was 57.7 µM; in test [3], over 100 µM; in test [9] it was over 100 µM; in test [10], 95.1 µM; in test [5], over 100 µM. Further, the TGI was 57.1 µM in test [6], over 100 µM in test [7] and over 100 µM in test [8].

As to `O=[N+]([O-])c1nccn1CC(O)c1ccccc1` (centres undefined), the TGI in [1], in test [2], in test [3], in test [10], in [5] and in test [6] was over 100 µM throughout. Further, the TGI in [7] and in [8] was over 100 µM throughout.

As for `CC1SC(c2ccccc2Cl)N(NC(=O)C(O)c2ccccc2)C1=O` (centres undefined), the GI50 in test [1] was 55.8 µM; in test [2], 67.8 µM; in [3], 49.5 µM; in [9] it was 85.3 µM; in [10], 35.4 µM; in [5], 73.1 µM. Further, the GI50 is over 100 µM in test [6], over 100 µM in test [7] and 31 µM in test [8]. Also, the TGI in test [1], in test [2], in test [3], in test [9], in [10] and in [5] was over 100 µM throughout. The TGI in test [6], in test [7] and in test [8] was over 100 µM in each case.

Turning to `CCOC(=O)C12CCCC1(O)N(NC(=O)OC)C(C)=C2C(=O)OC` (centres undefined), the TGI in [1] is over 100 µM; in test [2], over 100 µM; in test [3], over 100 µM; in test [10], over 10 µM; in test [5], over 100 µM; in test [6] it was 47.3 µM. In addition, the TGI in test [7] and in [8] was over 100 µM each time.

For `CSc1cc([C@@H]2C[C@H]2c2ccc(Cl)cc2)on1`, the GI50 in test [1] is 13.9 µM; in [3] it was 15.8 µM; in test [4] it was 22.2 µM; in test [10] it was 15.4 µM; in test [5], 14.8 µM; in test [6], 25.2 µM. In addition, the GI50 in test [7] was 27.4 µM; in test [8] it was 12.5 µM. The TGI in test [1] was over 100 µM; in test [3], 35.6 µM; in [4] it was over 100 µM; in [10], 33.4 µM; in test [5], over 100 µM; in [6] it was 82.3 µM. The figures for the TGI in [7] and in [8] were over 100 µM and 31.5 µM, respectively.

Turning to `Cc1cccc(-c2nnc3s/c(=C\c4ccc(N(C)C)cc4)c(=O)n23)c1`, the TGI in [1], in test [2], in test [3], in test [10], in test [5] and in test [6] was over 100 µM throughout. Moreover, the TGI in test [7] and in test [8] was over 100 µM throughout.

Turning to `O=C(CC1(O)C(=O)Nc2c(Cl)cc(Cl)cc21)c1ccccc1` (centres undefined), the TGI in test [1], in [2], in [3], in test [10], in test [5] and in [6] was over 100 µM in each case. Also, the TGI in [7] and in test [8] was over 100 µM in each case.

For `c1ccc(SC(Sc2ccccc2)=C2CCC2)cc1`, the TGI in test [1], in test [2], in [3], in test [10], in test [6] and in [7] was over 100 µM in each case. The compound also yielded a TGI in test [8] of over 100 µM.

For `Nc1nc(=O)n(C2CCC(CO)O2)cc1F` (centres undefined), the TGI in [1], in test [3], in [10], in test [6], in test [7] and in test [8] was over 100 µM throughout.

Regarding `CSC(=NC(=O)c1ccccc1Cl)SCCSC(=NC(=O)c1ccccc1Cl)SC`, the TGI in test [1], in test [2], in [3], in [10], in [5] and in test [6] was over 100 µM each time. Besides, the TGI in test [7] and in test [8] was over 100 µM in each case.

`COc1ccc2c(c1)c(-c1nc(-c3cn(C)c4ccncc34)cs1)cn2C`: the GI50 in test [1] is 1.73 µM; in test [2], 6.59 µM; in test [3] it was 1.9 µM; in [10], 1.99 µM; in [5], 1.92 µM; in test [6] it was 1.76 µM. Further, the GI50 in test [7] is 2.26 µM; in [8] it was 1.49 µM. The TGI turned out to be 3.11 µM in test [1]; 20.4 µM in test [2]; 3.6 µM in test [3]; 3.77 µM in test [10]; 3.65 µM in [5]; 3.28 µM in [6]. In addition, the TGI in test [7] was 4.73 µM; in test [8], 3.06 µM.

In the case of `CC(Oc1ccc2c(-c3ccc(Cl)cc3)cc(=O)oc2c1)C(=O)O` (centres undefined), the TGI in test [1], in [2], in [3], in test [10], in test [5] and in test [7] was over 100 µM each time. Besides, the TGI in [8] is over 100 µM.

With `CC(C)(C)C(=O)N1C(C(=O)O)Cc2ccccc2[C@@H]1Cc1ccccc1` (some centres undefined), the TGI in [1], in test [2], in [3], in test [10], in test [5] and in [6] was over 100 µM each time. Besides, the TGI in test [7] and in test [8] was over 100 µM in each case.

With `COC(=O)CCC(=O)Nc1ccc(Cl)cc1C`, the TGI in test [1] was over 100 µM; in test [2] it was over 79 µM; in test [3], over 100 µM; in test [10] it was over 100 µM; in [5] it was over 100 µM; in test [6] it was over 100 µM. For the same compound, the TGI in test [7] and in test [8] was over 100 µM in each case.

For the compound `CN(C)c1ccc(/C=N/NC(N)=S)nc1`, the GI50 in test [1] was 2.55 µM; in test [2] it was 1.92 µM; in test [3] it was 24.4 µM; in test [4], 4.32 µM; in test [10], 2.54 µM; in [6], over 100 µM. In addition, the figures for the GI50 in test [7] and in test [8] were 5.64 µM and 7.61 µM, respectively. For the same compound, the TGI in test [1] is over 100 µM; in [2] it was 9.37 µM; in test [3] it was over 100 µM; in test [4], over 100 µM; in [10] it was over 100 µM; in test [6], over 100 µM. Moreover, the TGI in [7] and in test [8] was over 100 µM throughout.

For `O=S(=O)(N=C1C(Cl)=C(Cl)C(=NS(=O)(=O)c2ccccc2)C(Cl)=C1Cl)c1ccccc1`, the GI50 in [1] is 20.5 µM; in test [2] it was 15.9 µM; in test [3], 24 µM; in test [4], 23.8 µM; in [10] it was 9.53 µM; in test [5] it was 18.7 µM. The GI50 in test [6] is 27.5 µM; in [7] it was 38.2 µM; in [8] it was 24.9 µM. For the same compound, the TGI is 65 µM in test [1]; 50.9 µM in [2]; 86.3 µM in [3]; over 100 µM in test [4]; 26 µM in test [10]; 40.7 µM in test [5]. The TGI in [6] was over 100 µM; in [7] it was over 100 µM; in test [8], 61.9 µM.

Consider `COc1ccc(/C=C/c2cc(OC)c(OC(C)=O)c(OC)c2)cc1`, for which the TGI in [1] is over 100 µM; in test [3], 66.9 µM; in test [10], over 100 µM; in test [5], over 100 µM; in [6] it was over 100 µM; in test [7], over 100 µM.

With `CCN(CC)CCN(CC)CC.CCN(CC)CCN(CC)CC.[Cu+2].[Cu+2].[O-][Cl+3]([O-])([O-])[O-].[OH3+].[OH3+]`, the GI50 in test [1] was over 100 µM; in test [2] it was 22.4 µM; in test [3] it was over 100 µM; in test [10], 23.9 µM; in test [5] it was 29.4 µM; in [7] it was 22 µM. Besides, the GI50 in [8] was 96.7 µM. Further, the TGI is over 100 µM in test [1]; 37.9 µM in [2]; over 100 µM in test [3]; 55.8 µM in test [10]; 87.9 µM in test [5]; 36.6 µM in test [7]. The compound further registered a TGI in test [8] of over 100 µM.

Regarding `CSC(=O)C[C@@]12O[C@@H]([C@@H](C)C3CCC4[C@@H]5C(O)CC6=CC(=O)C=C[C@]6(C)C5CC[C@@]43C)C[C@](C)(O1)C(C)(C)O2` (some centres undefined), the TGI is 31.5 µM in test [2]; 26.9 µM in [3]; 30.2 µM in test [10]; 46.2 µM in test [5]; 45 µM in [6]; 33.8 µM in test [7]. Besides, the TGI in test [8] was 34.8 µM.

For the compound `Nc1ncc(-c2ccc3ncnc(Nc4cccc(Cl)c4)c3c2)cn1`, the GI50 in [1] is 0.0232 µM; in test [3], over 100 µM; in test [5] it was 0.0206 µM; in test [7], 0.387 µM and 2.28 µM. In addition, the TGI in test [3] was over 100 µM; in test [5] it was 0.223 µM; in test [7], over 100 µM.

For the compound `Cc1ccc(NCC2(/N=C/c3ccccc3)OC(CO)C(O)C2O)cc1` (centres undefined), the TGI in test [1], in test [3], in test [10], in [5], in test [6] and in [7] was over 100 µM each time. In [8], this compound returned a TGI of over 100 µM.

`CN(C)c1ccc(/C=c2\sc3nnc(-c4ccco4)n3c2=O)cc1`: the TGI in [2], in [3], in [10], in test [5], in test [6] and in [7] was over 100 µM throughout. In addition, the TGI in [8] is over 100 µM.

With `Cc1ccc(/C=C/C(=O)c2ccc(Cl)c(Cl)c2)cc1`, the TGI in [1], in test [2], in test [3], in test [10], in test [5] and in [6] was over 100 µM in each case. Besides, the TGI in test [7] and in test [8] was over 100 µM each time.

With `CCC[CH2][Sn](=[O])[CH2]CCC`, the GI50 in [1], in [3], in test [10], in test [5], in [6] and in [7] was over 50 µM in each case. Further, the GI50 in test [8] is over 50 µM. Further, the TGI in test [1], in test [3], in [10], in test [5], in test [6] and in [7] was over 50 µM each time. The same compound had a TGI in test [8] of over 50 µM.

For the compound `CCCCCCCCCCCCSC(=S)c1c(C)[nH]n(-c2ccccc2)c1=O`, the TGI in test [1] was over 50 µM; in test [2] it was over 50 µM; in [3] it was 29.5 µM; in [10], 46.1 µM; in test [5] it was over 50 µM; in test [7], over 50 µM. The same compound had a TGI in test [8] of over 50 µM.

Turning to `CC(=O)OC12C(C)=C(C)C(=O)N1c1ccccc1N2C(C)=O` (centres undefined), the TGI in [1], in test [3], in test [10], in [5], in [6] and in test [7] was over 100 µM each time. Besides, the TGI in test [8] is over 100 µM.

Take `NC(=S)N1N=C2CCCCCC[C@@H]2[C@H]1c1ccccc1`: the TGI in test [1], in [2], in [3], in test [10], in test [5] and in [6] was over 100 µM throughout. In addition, the TGI in [7] and in test [8] was over 100 µM each time.
